Among the data in patent US10364245B2 (CHIESI FARMACEUTICI S.p.A., priority 2017, dated 2019) are IC50 values, retold here.

Where a name gives a salt, the structure may show the parent alone.

The test system of test [1] is Peripheral Blood Mononuclear Cells (PBMCs), TNFα release. Briefly: LPS-stimulated PBMC TNFα release assay. The following applies: human PBMC, LPS (10 ng/ml), 18 h, compound 1 h before LPS; read-out: LPS-stimulated PBMC TNFα release inhibition. The class given is cell-based. Summed up:
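Human PBMCs from healthy donors, serum-starved 3 h, then pre-incubated 1 h at 37 °C with compound in 1% FBS medium before LPS (10 ng/ml) for 18 h. Supernatant TNFα measured by MSD; IC50 from dose-response as % inhibition of control, at least three experiments.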

A further test addresses T1, p38 alpha (Homo sapiens, UniProt Q16539).
T1 construct: purchased Invitrogen PV3304
Description: P38 alpha enzyme inhibition assay (Alphascreen kinase activity assay). In kind it is biochemical. The settings on record: 100 pM p38 alpha, 2 hours preincubation at 25° C., 250 μM ATP, ATF-2 fusion protein; read-out: p38α inhibition. Summed up: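 100 pM p38 alpha preincubated 2 h at 25 °C with compound and 0.3 μg/ml ATF-2 fusion substrate (HEPES pH 7.5, MgCl2, 1% DMSO). Reaction started with 250 μM ATP, run 1 h at 25 °C, stopped with EDTA; phospho-ATF2 detected by AlphaScreen luminescence. IC50 from concentration-response curves.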
Background: In Alpha technology, singlet oxygen from a donor bead excites a nearby acceptor bead.

T1 sequence (Q16539 whole entry): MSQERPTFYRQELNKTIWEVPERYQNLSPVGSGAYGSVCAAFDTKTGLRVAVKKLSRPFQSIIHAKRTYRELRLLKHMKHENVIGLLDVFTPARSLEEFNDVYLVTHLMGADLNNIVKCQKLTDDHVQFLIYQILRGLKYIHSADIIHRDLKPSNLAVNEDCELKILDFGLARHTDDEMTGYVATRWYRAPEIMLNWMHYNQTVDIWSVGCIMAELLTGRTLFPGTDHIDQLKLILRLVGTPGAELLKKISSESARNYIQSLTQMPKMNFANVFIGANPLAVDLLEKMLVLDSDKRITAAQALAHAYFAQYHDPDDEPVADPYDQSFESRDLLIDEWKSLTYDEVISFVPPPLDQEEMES

Turning to `CC[C@H](C)c1nnc2ccc(O[C@@H]3CC[C@H](NC(=O)Nc4cc(C(=O)NCC(C)(C)N(C)C)nc(C(C)(C)C)c4)c4ccccc43)cn12` [Example 202, 6-(tert-Butyl)-4-(3-((1S,4R)-4-((3-((S)-sec-butyl)-[1,2,4]triazolo[4,3-a]pyridin-6-yl)oxy)-1,2,3,4-tetrahydronaphthalen-1-yl)ureido)-N-(2-(dimethylamino)-2-methylpropyl)-picolinamide formate salt], the IC50 lay within 1 to 5 nM in test [1] and 1 to 10 nM at p38 alpha.

`CCN(CC)c1nnc2ccc(O[C@@H]3CC[C@H](NC(=O)Nc4cc(C(=O)NCC(C)(C)N(C)C)nc(C(C)(C)C)c4)c4ccccc43)cn12` [Example 204, 6-(tert-Butyl)-4-(3-((1S,4R)-4-((3-(diethylamino)-[1,2,4]triazolo[4,3-a]pyridin-6-yl)oxy)-1,2,3,4-tetrahydronaphthalen-1-yl)ureido)-N-(2-(dimethylamino)-2-methylpropyl)-picolinamide formate salt]: the results for the IC50 (in test [1]; at p38 alpha) were 1 to 5 nM and less than 1 nM, respectively.

Take `CCN(C)CCNC(=O)c1cc(NC(=O)N[C@H]2CC[C@@H](Oc3ccc4nnc(N(CC)CC)n4c3)c3ccccc32)cc(C(C)(C)C)n1` [Example 205, 6-(tert-Butyl)-4-(3-((1S,4R)-4-((3-(diethylamino)-[1,2,4]triazolo[4,3-a]pyridin-6-yl)oxy)-1,2,3,4-tetra-hydronaphthalen-1-yl)ureido)-N-(2-(ethyl(methyl)amino)-ethyl)picolinamide formate salt]: the IC50 in test [1] is 1 to 5 nM; on p38 alpha, less than 1 nM.

As for `CCC(C)(C)c1nnc2ccc(O[C@@H]3CC[C@H](NC(=O)Nc4cc(C(=O)NCCN(C)C)nc(C(C)(C)C)c4)c4ccccc43)cn12` [Example 206, 6-(tert-butyl)-N-(2-(dimethylamino)ethyl)-4-(3-((1S,4R)-4-((3-(tert-pentyl)-[1,2,4]triazolo[4,3-a]pyridin-6-yl)oxy)-1,2,3,4-tetrahydronaphthalen-1-yl)ureido)picolinamide], the IC50 in test [1] was 1 to 5 nM; at p38 alpha, less than 1 nM.

As for `CCC(CC)c1nnc2ccc(O[C@@H]3CC[C@H](NC(=O)Nc4cc(C(=O)NCCN(C)C)nc(C(C)(C)C)c4)c4ccccc43)cn12` [Example 207, 6-(tert-butyl)-N-(2-(dimethylamino)ethyl)-4-(3-((1S,4R)-4-((3-(pentan-3-yl)-[1,2,4]triazolo[4,3-a]pyridin-6-yl)oxy)-1,2,3,4-tetrahydronaphthalen-1-yl)ureido)picolinamide], the IC50 (in test [1]; at p38 alpha) was less than 1 nM each time.

As for `CN(CCO)CCNC(=O)c1cc(C(C)(C)C)cc(NC(=O)N[C@H]2CC[C@@H](Oc3ccc4nnc(C(C)(C)C)n4c3)c3ccccc32)n1` [Example 208, 4-(tert-butyl)-6-(3-((1S,4R)-4-((3-(tert-butyl)-[1,2,4]triazolo[4,3-a]pyridin-6-yl)oxy)-1,2,3,4-tetrahydronaphthalen-1-yl)ureido)-N-(2-((2-hydroxyethyl)(methyl)-amino)ethyl)picolinamide formate salt], the IC50 in test [1] is more than 5 nM; at p38 alpha it was less than 1 nM.

Turning to `CC(C)(C)c1cc(NC(=O)N[C@H]2CC[C@@H](Oc3ccc4nnc(C(C)(C)C)n4c3)c3ccccc32)nc(C(=O)NCCN2CCCOCC2)c1` [Example 209, N-(2-(1,4-oxazepan-4-yl)ethyl)-4-(tert-butyl)-6-(3-((1S,4R)-4-((3-(tert-butyl)-[1,2,4]triazolo[4,3-a]pyridin-6-yl)oxy)-1,2,3,4-tetrahydronaphthalen-1-yl)ureido)picolinamide formate salt], the IC50 (in test [1]; at p38 alpha) was less than 1 nM throughout.

On to `COC1CN(CCNC(=O)c2cc(C(C)(C)C)cc(NC(=O)N[C@H]3CC[C@@H](Oc4ccc5nnc(C(C)(C)C)n5c4)c4ccccc43)n2)C1` [Example 210, 4-(tert-butyl)-6-(3-((1S,4R)-4-((3-(tert-butyl)-[1,2,4]triazolo[4,3-a]pyridin-6-yl)oxy)-1,2,3,4-tetrahydronaphthalen-1-yl)ureido)-N-(2-(3-methoxyazetidin-1-yl)ethyl)picolinamide formate salt], for which the results for the IC50 (in test [1]; at p38 alpha) were 1 to 5 nM and less than 1 nM, respectively.

With `CC(C)(C)c1cc(NC(=O)N[C@H]2CC[C@@H](Oc3ccc4nnc(C(C)(C)C)n4c3)c3ccccc32)nc(C(=O)NCCN2CCC(O)CC2)c1` [Example 211, 4-(tert-butyl)-6-(3-((1S,4R)-4-((3-(tert-butyl)-[1,2,4]triazolo[4,3-a]pyridin-6-yl)oxy)-1,2,3,4-tetrahydronaphthalen-1-yl)ureido)-N-(-(2-(4-hydroxypiperidin-1-yl)ethyl)picolinamide formate salt], the IC50 was more than 5 nM in test [1] and less than 1 nM at p38 alpha.

As to `CN1CCC[C@@]1(C)c1nnc2ccc(O[C@@H]3CC[C@H](NC(=O)Nc4cc(NS(C)(=O)=O)nc(C(C)(C)C)c4)c4ccccc43)cn12` [Example 212, N-(6-(tert-Butyl)-4-(3-((1S,4R)-4-((3-((S)-1,2-dimethylpyrrolidin-2-yl)-[1,2,4]triazolo[4,3-a]pyridin-6-yl)oxy)-1,2,3,4-tetrahydronaphthalen-1-yl)ureido)pyridin-2-yl)methanesulfonamide], the results for the IC50 (in test [1]; at p38 alpha) were 1 to 5 nM and less than 1 nM, respectively.

In the case of `CCS(=O)(=O)Nc1cc(NC(=O)N[C@H]2CC[C@@H](Oc3ccc4nnc([C@]5(C)CCCN5C)n4c3)c3ccccc32)cc(C(C)(C)C)n1` [Example 213, N-(6-(tert-Butyl)-4-(3-((1S,4R)-4-((3-((S)-1,2-dimethylpyrrolidin-2-yl)-[1,2,4]triazolo[4,3-a]pyridin-6-yl)oxy)-1,2,3,4-tetrahydronaphthalen-1-yl)ureido)pyridin-2-yl)ethanesulfonamide], the IC50 in test [1] is 1 to 5 nM; at p38 alpha it was less than 1 nM.

Regarding `CN(C)CCNC(=O)c1nc(NC(=O)N[C@H]2CC[C@@H](Oc3ccc4nnc([C@@H]5COCCN5C)n4c3)c3ccccc32)cc(C(C)(C)C)n1` [Example 214, 4-(tert-Butyl)-N-(2-(dimethylamino)ethyl)-6-(3-((1S,4R)-4-((3-((R)-4-methylmorpholin-3-yl)-[1,2,4]triazolo[4,3-a]pyridin-6-yl)oxy)-1,2,3,4-tetrahydronaphthalen-1-yl)ureido)pyrimidine-2-carboxamide], the IC50 in test [1] was more than 5 nM; on p38 alpha it was 1 to 10 nM.

For `CN(CCO)CCNC(=O)c1nc(NC(=O)N[C@H]2CC[C@@H](Oc3ccc4nnc([C@@H]5COCCN5C)n4c3)c3ccccc32)cc(C(C)(C)C)n1` [Example 215, 4-(tert-Butyl)-N-(2-((2-hydroxyethyl)(methyl)amino)ethyl)-6-(3-((1S,4R)-4-((3-((R)-4-methylmorpholin-3-yl)-[1,2,4]triazolo[4,3-a]pyridin-6-yl)oxy)-1,2,3,4-tetrahydronaphthalen-1-yl)ureido)pyrimidine-2-carboxamide], the IC50 in test [1] was more than 5 nM; on p38 alpha, 1 to 10 nM.
